Measured values: patent US20060128736A1, “Camptothecin-carboxylate formulations” (priority 2002, published 2006)

Assays:
[1] = Fluorescence anisotropy of CPT in lipid suspensions; type: physicochemical; conditions: 10 mM Tris-buffer pH 7.5, 10% trehalose
Text: These finding are corroborated by fluorescence anisotropy measurements of the CPT. In this experiment, an increase of the fluorescence anisotropy is expected if the fluorophore is inserted into a liposome and thus its mobility is decreased. […] DOTAP and DOPC both comprise unsaturated fatty acid chains, but DOTAP is positively charged while DOPC is neutral.
For efficient binding, in addition to charge, the phase state of the fatty acid chains is important. […] DOTAP has its main phase transition (Tm) near 37° C. […] Below that temperature the fatty acid chains are in the gel phase (a crystalline like state) and above they are in the liquid crystalline (fluid-like) state.
FIG. 9: Fluorescence anisotropy measurements of CPT in lipid suspensions from DOTAP and DOPC and as prepared by different methods. […]
FIG. 10: Comparison of fluorescence anisotropy measurements with DOTAP and DMTAP Measurements with CPT and with 10-OH-CPT are shown. […]
In order to get further information on the CPT-lipid interaction form an independent method, fluorescence anisotropy measurements were performed. […] The fluorescence anisotropy was taken as a measure for the binding strength of CPT to the liposome. […]
Fluorescence anisotropy measurements from liposomes with two different cationic lipids, DOTAP and DMTAP, and two different CPT drugs (CPT and 10-OH-CPT) are compared. […]

A-375 melanoma [2] = assay: Therapeutic efficacy of LipoCam IV and VI in A-375 melanoma of nude mice (FIG. 13); type: in vivo, NMRI-nude mice; conditions: 1 and 2 mg/kg iv three times a week for three weeks
Method: (§1) NMRI-nude mice were purchased from Elevage Janvier and housed in isolated ventilated cages under save environmental conditions (SPF facility, 22° C., 30-70% humidity, 12 h light/dark cycle) with food and water ad libitum. Experimental design was reviewed and approved by local government.
(§2) Tumor cells (A-375 human melanoma cell line, ATCC Nr.: CRL-1619) were grown as described in the data sheet supplied by ATCC. Tumor cells (5×10^6 in PBS) were inoculated s.c. in the right dorsal flank of mice in a volume of 50 μl on day 0.
Mice were assigned to the experimental groups (8 animals per cage), housed and handled (including monitoring of the body weight gain) at least five days before tumor inoculation (=day −6 to 0). […] Toxicity was evaluated based on hematological parameters, body weight and animal clinical observations. […]
Animals were clinically monitored during the whole experiment, monitoring of tumor size was performed three times a week. The tumor dimensions were measured by caliper and the tumor size was calculated according to the following formula: V=πL W^2/6 (L=greatest length, W=width of perpendicular axis). The body weight of individual animals was monitored at least twice during handling period, after tumor inoculation and after start of treatment. […] The number of red and white blood cells and platelets were determined using an automated cell counter (Abbott Cell Dyn 3500).

A-375 melanoma [3] = assay: Therapeutic efficacy of LipoCam in A-375 melanoma of nude mice (FIG. 12); type: in vivo, NMRI-nude mice; conditions: iv three times a week for three weeks at equitoxic doses, start at about 100 mm^3
Method: as §1, §2
Mice were assigned to the experimental groups (8 animals per cage), housed and handled (including monitoring of the body weight gain) at least five days before tumor inoculation (=day −6 to 0). […] Equitoxic doses of the compounds were determined in separate experiments, where toxicity was evaluated based on haematological parameters, body weight and animal clinical observations (see Tab. 3). […] Animals were clinically monitored during the whole experiment, monitoring of tumor size was performed three times a week. The tumor dimensions were measured by caliper and the tumor size was calculated according to the following formula: V=πL W^2/6 (L=greatest length, W=width of perpendicular axis). The body weight of individual animals was monitored at least twice during handling period, after tumor inoculation and after start of treatment. […]

Row | SMILES | Fluorescence anisotropy (measure of binding strength of CPT to the liposome) [1] | Order of antitumor efficacy (A-375 melanoma [2]) | Anti-tumor effect (tumor volume) (A-375 melanoma [3])
1 | CC[C@@]1(O)C(=O)OCc2c1cc1n(c2=O)Cc2cc3cc(O)ccc3nc2-1 [Formulation 10-OH-CPT, 10-Hydroxy-camptothecin] | higher binding efficacy |  | 
2 | CCC(O)(C(=O)O)c1cc2n(c(=O)c1CO)Cc1cc3ccccc3nc1-2 (stereo not shown) [CPT-carboxylate] | zero | LipoCam IV (2 mg/kg)>LipoCam VI (1 mg/kg)>CPT-carboxylate (2 mg/kg)>CPT-carboxylate (1 mg/kg) | 
3 | CC[C@@](O)(C(=O)[O-])c1cc2n(c(=O)c1CO)Cc1cc3ccccc3nc1-2.[Na+] [CPT-Na-Carboxylate] |  |  | only a retardation
